Results published in the RepoRT retention time repository (doi:10.1016/j.jchromb.2020.122105).

How the values were obtained:
Details in all cases: stereoisomer not certain
[1] = RP, Waters CORTECS T3, 100 × 2.1 mm, 2.7 µm, 0.15 mL/min, estimated dead time 1.5 min; A: water + 0.1% formic acid, pH 3; B: methanol + 0.1% formic acid, pH 3; gradient (min/%B) 0/0 1/0 6/5 30/100 35/100 35.1/0 40/0
[2] = RP, Waters ACQUITY UPLC BEH C18, 100 × 2.1 mm, 1.7 µm, 0.1 mL/min, estimated dead time 2.2 min; A: water + 0.1% formic acid, pH 3; B: methanol + 0.1% formic acid, pH 3; gradient (min/%B) 0/5 5/5 25/100 30/100 30.1/5 35/5
[3] = RP, Waters CORTECS T3, 100 × 2.1 mm, 2.7 µm, 0.2 mL/min, estimated dead time 1.1 min; A: water + 0.1% formic acid, pH 3; B: methanol + 0.1% formic acid, pH 3; gradient (min/%B) 0/0 1/0 6/5 30/100 35/100 35.1/0 40/0
[4] = RP, Waters CORTECS T3, 100 × 2.1 mm, 2.7 µm, 0.2 mL/min, estimated dead time 1.1 min; A: water + 0.045% formic acid + 0.11% ammonium hydroxide, pH 7; B: methanol; gradient (min/%B) 0/5 5/5 25/95 25.1/100 35/100 35.1/5 45/5
[5] = RP, Waters CORTECS T3, 100 × 2.1 mm, 2.7 µm, 0.25 mL/min, estimated dead time 0.88 min; A: water + 0.1% formic acid, pH 3; B: methanol + 0.1% formic acid, pH 3; gradient (min/%B) 0/5 5/5 25/95 25.1/100 35/100 35.1/5 45/5
[6] = RP, Waters CORTECS T3, 100 × 2.1 mm, 2.7 µm, 0.3 mL/min, estimated dead time 0.73 min; A: water + 0.1% formic acid, pH 3; B: methanol + 0.1% formic acid, pH 3; gradient (min/%B) 0/0 1/0 6/5 30/100 35/100 35.1/0 40/0
[7] = HILIC, Merck SeQuant ZIC-HILIC, 150 × 2.1 mm, 5 µm, 0.75 mL/min, estimated dead time 0.44 min; A: water + 10 mM ammonium formate, pH 6; B: 5% water + 95% acetonitrile + 10 mM ammonium formate, pH 6; gradient (min/%B) 0/95 5/95 20/57 25/57 30/95 40/95
[8] = RP, Waters CORTECS T3, 100 × 2.1 mm, 2.7 µm, 0.15 mL/min, estimated dead time 1.5 min; A: water + 0.1% formic acid, pH 3; B: methanol + 0.1% formic acid, pH 3; gradient (min/%B) 0/5 5/5 25/95 25.1/100 35/100 35.1/5 45/5
[9] = RP, Waters CORTECS T3, 100 × 2.1 mm, 2.7 µm, 0.1 mL/min, estimated dead time 2.2 min; A: water + 0.1% formic acid, pH 3; B: methanol + 0.1% formic acid, pH 3; gradient (min/%B) 0/5 5/5 25/95 25.1/100 35/100 35.1/5 45/5
[10] = RP, Waters ACQUITY UPLC BEH C18, 100 × 2.1 mm, 1.7 µm, 0.1 mL/min, estimated dead time 2.2 min; A: water + 0.1% formic acid, pH 3; B: methanol + 0.1% formic acid, pH 3; gradient (min/%B) 0/5 5/5 25/95 25.1/100 35/100 35.1/5 45/5
[11] = RP, Waters CORTECS T3, 100 × 2.1 mm, 2.7 µm, 0.3 mL/min, estimated dead time 0.73 min; A: water + 0.1% formic acid, pH 3; B: methanol + 0.1% formic acid, pH 3; gradient (min/%B) 0/5 5/5 25/100 30/100 30.1/5 35/5
[12] = RP, Waters CORTECS T3, 100 × 2.1 mm, 2.7 µm, 0.2 mL/min, estimated dead time 1.1 min; A: water + 0.1% formic acid, pH 3; B: methanol + 0.1% formic acid, pH 3; gradient (min/%B) 0/0 1/0 6/5 30/100 35/100 35.1/0 40/0; remark: listed apart in the source
[13] = HILIC, Thermo Scientific Accucore HILIC, 100 × 2.1 mm, 2.6 µm, 0.5 mL/min, estimated dead time 0.44 min; A: water + 0.1% formic acid + 10 mM ammonium formate, pH 3; B: 5% water + 95% acetonitrile + 0.1% formic acid + 10 mM ammonium formate, pH 3; gradient (min/%B) 0/95 5/95 20/57 25/57 30/95 40/95
[14] = RP, Waters CORTECS T3, 100 × 2.1 mm, 2.7 µm, 0.3 mL/min, estimated dead time 0.73 min; A: water + 0.1% formic acid, pH 3; B: methanol + 0.1% formic acid, pH 3; gradient (min/%B) 0/0 5/0 25/100 30/100 30.1/0 35/0
[15] = RP, Waters ACQUITY UPLC BEH C18, 100 × 2.1 mm, 1.7 µm, 0.2 mL/min, estimated dead time 1.1 min; A: water + 0.1% formic acid, pH 3; B: methanol + 0.1% formic acid, pH 3; gradient (min/%B) 0/5 5/5 25/100 30/100 30.1/5 35/5
[16] = HILIC, Merck SeQuant ZIC-HILIC, 150 × 2.1 mm, 5 µm, 0.75 mL/min, estimated dead time 0.44 min; A: water + 0.1% acetic acid + 10 mM ammonium acetate, pH 4; B: 5% water + 95% acetonitrile + 0.1% acetic acid + 10 mM ammonium acetate, pH 4; gradient (min/%B) 0/95 5/95 20/57 25/57 30/95 40/95
[17] = RP, Waters ACQUITY UPLC BEH C18, 100 × 2.1 mm, 1.7 µm, 0.1 mL/min, estimated dead time 2.2 min; A: water + 0.1% formic acid, pH 3; B: methanol + 0.1% formic acid, pH 3; gradient (min/%B) 0/5 5/5 25/95 25.1/100 35/100 35.1/5 45/5; remark: listed apart in the source

| LC retention time [1] | LC retention time [2] | LC retention time [3] | LC retention time [4] | LC retention time [5] | LC retention time [6] | LC retention time [7] | LC retention time [8] | LC retention time [9] | LC retention time [10] | LC retention time [11] | LC retention time [12] | LC retention time [13] | LC retention time [14] | LC retention time [15] | LC retention time [16] | LC retention time [17] | SMILES |
| --- | --- | --- | --- | --- | --- | --- | --- | --- | --- | --- | --- | --- | --- | --- | --- | --- | --- |
| 20.4 min | 19.7 min | 19.2 min | 17.2 min | 16.4 min | 18 min | 8.69 min | 18.1 min | 19.9 min | 20.2 min | 15.5 min | 19.3 min | 8.63 min | 16.1 min | 16.9 min |  |  | N[C@@H](Cc1cc(I)c(Oc2ccc(O)cc2)c(I)c1)C(=O)O [3,5-DIIODO-L-THYRONINE] |
| 13.6 min | 14.2 min | 12.3 min | 7.9 min | 9.94 min | 10.7 min |  | 12.1 min | 14.2 min | 14.3 min | 9.17 min | 12.2 min | 6.71 min | 10.5 min | 10.9 min |  |  | O=C(O)c1cc(=O)c2ccccc2[nH]1 [4-HYDROXY-2-QUINOLINECARBOXYLIC ACID] |
| 10.9 min | 11.5 min | 9.6 min |  | 6.32 min | 7.94 min | 10.5 min | 9.08 min | 11.2 min |  | 5.2 min | 9.51 min | 4.93 min | 8.53 min | 8.01 min | 9.3 min | 11.6 min | CC(C)(CO)C(O)C(=O)NCCC(=O)O [D-PANTOTHENIC ACID] |
| 16.9 min | 16.9 min | 15.7 min | 9.32 min | 13.2 min | 14.3 min | 3.19 min | 15.1 min | 17.1 min |  | 12.4 min | 15.7 min |  | 13.2 min | 13.8 min |  | 17.2 min | CC1NC(=O)NC1CCCCCC(=O)O (stereo not given) [DETHIOBIOTIN] |
| 16.5 min | 16.9 min | 15.1 min | 16.9 min | 12.6 min | 13.6 min | 0.64 min | 14.7 min | 17 min | 17.3 min | 11.8 min | 15 min | 0.92 min | 12.7 min | 13.4 min | 0.62 min | 17.2 min | CC(C)=CCNc1ncnc2nc[nH]c12 [N6-(DELTA2-ISOPENTENYL)-ADENINE] |
| 17 min | 17.3 min | 15.7 min | 10.4 min | 13.2 min | 14.2 min | 8.49 min | 15.2 min | 17.3 min |  | 12.3 min | 15.7 min |  | 13.2 min | 14 min | 8.28 min | 17.6 min | CC(=O)N[C@H](Cc1c[nH]c2ccccc12)C(=O)O [N-ACETYL-D-TRYPTOPHAN] |
| 5.95 min | 4.78 min |  | 1.35 min | 2.11 min | 2.75 min | 5.74 min | 3.45 min | 4.93 min |  | 1.73 min | 4.26 min | 3.39 min | 2.96 min | 2.44 min | 5.43 min | 4.74 min | Nc1nc2nccnc2c(=O)[nH]1 [PTERIN] |
| 15.8 min | 15.5 min | 14.7 min | 13.2 min | 12.4 min | 13.5 min |  | 14.1 min | 16 min | 15.7 min | 11.7 min | 14.7 min |  | 12.5 min | 12.7 min |  | 15.7 min | Cc1cc2nc3c(=O)[nH]c(=O)nc-3n(CC(O)C(O)C(O)CO)c2cc1C (stereo not given) [RIBOFLAVIN] |
| 4.65 min |  | 3.32 min |  | 1.85 min | 2.17 min | 5.7 min | 3.01 min | 4.3 min | 2.66 min | 1.53 min | 3.29 min | 1.92 min | 2.27 min | 2.14 min | 5.71 min | 2.82 min | O=c1[nH]c(=O)c2[nH]cnc2[nH]1 [XANTHINE] |
| 13.4 min | 13.8 min | 12.1 min |  | 9.71 min | 10.5 min | 9.77 min | 11.8 min | 13.9 min | 13.9 min | 8.94 min | 12 min | 7.89 min | 10.3 min | 10.4 min | 9.68 min | 14 min | O=C(O)c1cc(=O)c2cccc(O)c2[nH]1 [XANTHURENIC ACID] |
